Biological target: T1, 11β-HSD (Homo sapiens, UniProt P28845)
T1 construct: from tissue
Assay: in vitro 11β-HSD Assay (human microsomes, CISBIO Cortisol kit)
Type: biochemical
Settings: 160 nM cortisone, 200 μM NADPH, 2 h at 37° C.
Description: Protocol for in vitro 11β-HSD Assay
CISBIO Cortisol kit #62CO2PEB
Assay Buffer: (water based) used for Enzyme, Compounds and Microsomes: 20 mM Tris, 5 mM EDTA, and pH 6.0.
Enzyme Buffer: 333 μM NADPH (FAC 200 μM) and 266 nM Cortisone (FAC 160 nM).
1) Test compounds (10 mM stock in 100% DMSO) were diluted in Assay Buffer (see below) with 1% DMSO FAC and placed into the 96-well plate. Test compounds were typically tested over 10 concentrations (30 μM-0.3 nM).
2) 30 μL Enzyme Buffer, 10 μL Test Compound, 10 μL human microsomes were added to the test compounds and mixed gently by tapping the plate.
3) The plates were incubated for 2 h at 37° C.
4) 25 μL anti Cortisol-K and 25 μL Cortisol d2 were added to the plate and mixed gently by tapping the plate.
5) The plates were incubated at room temperature for 2 h.
6) The plates were read on an Envision model 2120 Perkin-Elmer using emission filters #205 and #217.

T1 sequence (P28845 whole entry): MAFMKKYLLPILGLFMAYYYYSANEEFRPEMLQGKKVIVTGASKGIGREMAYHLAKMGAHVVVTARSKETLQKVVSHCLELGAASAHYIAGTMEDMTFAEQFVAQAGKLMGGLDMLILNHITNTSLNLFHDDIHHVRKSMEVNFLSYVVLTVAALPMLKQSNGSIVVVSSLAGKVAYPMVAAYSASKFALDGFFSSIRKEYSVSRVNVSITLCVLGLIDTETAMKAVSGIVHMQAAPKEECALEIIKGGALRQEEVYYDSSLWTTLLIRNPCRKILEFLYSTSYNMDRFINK

Compound | EC50 [nM]
O=C(NC1C2CC3CC1CC(O)(C3)C2)c1cccc(Oc2ccc(Cl)cn2)c1 (stereo not drawn) [Example 1, 3-(5-Chloro-pyridin-2-yloxy)-N-[(E)-5-hydroxy-adamantan-2-yl]-benzamide] | < 200
O=C(NC1C2CC3CC1CC(O)(C3)C2)c1cccc([S+]([O-])c2ccc(Cl)cn2)c1 (stereo not drawn) [Example 4, 3-(5-Chloro-pyridine-2-sulfinyl)-N-[(E)-5-hydroxy-adamantan-2-yl]-benzamide] | < 500
O=C(NC1C2CC3CC1CC(O)(C3)C2)c1cccc(Nc2ccc(Cl)cn2)c1 (stereo not drawn) [Example 8, 3-(5-Chloro-pyridin-2-ylamino)-N-[(E)-5-hydroxy-adamantan-2-yl]-benzamide] | < 200
O=C(NC1C2CC3CC1CC(O)(C3)C2)c1cccc(Sc2ccc(Cl)cn2)c1 (stereo not drawn) [Example 3, 3-(5-Chloro-pyridin-2-ylsulfanyl)-N-[(E)-5-hydroxy-adamantan-2-yl]-benzamide] | < 200
O=C(NC1C2CC3CC1CC(O)(C3)C2)c1cccc(Oc2ccc(Cl)nn2)c1 (stereo not drawn) [Example 6, 3-(6-Chloro-pyridazin-3-yloxy)-N-[(E)-5-hydroxy-adamantan-2-yl]-benzamide] | < 200
O=C(NC1C2CC3CC1CC(O)(C3)C2)c1cccc(S(=O)(=O)c2ccc(Cl)cn2)c1 (stereo not drawn) [Example 5, 3-(5-Chloro-pyridine-2-sulfonyl)-N-[(E)-5-hydroxy-adamantan-2-yl]-benzamide] | < 3000
O=C(NC1C2CC3CC1CC(O)(C3)C2)c1cccc(Oc2ncc(Cl)cc2Cl)c1 (stereo not drawn) [Example 7, 3-(3,5-Dichloro-pyridin-2-yloxy)-N-[(E)-5-hydroxy-adamantan-2-yl]-benzamide] | < 200
Cc1cc(C)nc(Nc2cccc(C(=O)NC3C4CC5CC3CC(O)(C5)C4)c2)n1 (stereo not drawn) [Example 9, 3-(4,6-Dimethyl-pyrimidin-2-ylamino)-N-[(E)-5-hydroxy-adamantan-2-yl]-benzamide] | < 500
O=C(NC1C2CC3CC1CC(O)(C3)C2)c1cccc(Oc2ccc(C(F)(F)F)cn2)c1 (stereo not drawn) [Example 2, N-[(E)-5-Hydroxy-adamantan-2-yl]-3-(5-trifluoromethyl-pyridin-2-yloxy)-benzamide] | < 200
